The values below come from paper PMC7582571, “The First Berberine-Based Inhibitors of Tyrosyl-DNA Phosphodiesterase 1 (Tdp1), an Important DNA Repair Enzyme” (International Journal of Molecular Sciences, 2020).

Where “and” joins values, the source holds several entries; their conditions need not be identical. Identical values can stand only once. Entries after “also recorded” stand apart in the source; their conditions may differ. Like-named read-outs stand apart in the source and are kept apart here.

For one series, the target named is Tdp1 (Homo sapiens, UniProt Q9NUW8). The series can be described thus: Tdp1 activity, real-time fluorescence oligonucleotide biosensor (FAM/BHQ1) assay. In kind it is biochemical. The text has this: An oligonucleotide real-time biosensor was used based on the ability of Tdp1 to remove fluorophore quenchers from the 3′-end of DNA, as previously described. The hexadecameric oligonucleotide carried 5(6)-carboxyfluorescein (FAM) at the 5′-end and the fluorophore quencher BHQ1 (Black Hole Quencher-1) at the 3′-end. Tdp1 inhibitors prevent removal of fluorophore quenchers, thus reducing fluorescence intensity.
Tdp1, sequence (Q9NUW8 whole entry): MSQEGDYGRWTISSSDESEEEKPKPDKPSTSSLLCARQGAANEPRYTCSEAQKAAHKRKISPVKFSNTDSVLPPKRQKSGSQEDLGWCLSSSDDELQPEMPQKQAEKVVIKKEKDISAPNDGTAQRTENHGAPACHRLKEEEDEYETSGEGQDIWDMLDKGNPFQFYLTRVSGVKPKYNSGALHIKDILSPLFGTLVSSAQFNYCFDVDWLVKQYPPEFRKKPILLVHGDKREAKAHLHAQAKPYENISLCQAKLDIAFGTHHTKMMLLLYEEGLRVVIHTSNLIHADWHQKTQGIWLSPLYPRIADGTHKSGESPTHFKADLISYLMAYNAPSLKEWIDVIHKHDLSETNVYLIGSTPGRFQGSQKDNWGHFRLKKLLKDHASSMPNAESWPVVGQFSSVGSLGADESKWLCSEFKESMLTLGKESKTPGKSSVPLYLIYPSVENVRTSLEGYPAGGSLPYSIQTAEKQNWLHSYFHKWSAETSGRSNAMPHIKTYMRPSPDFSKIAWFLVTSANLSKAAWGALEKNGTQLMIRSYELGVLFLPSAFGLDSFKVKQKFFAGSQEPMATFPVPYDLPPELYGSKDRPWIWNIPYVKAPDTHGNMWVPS
The methodology has been reported in our previous work and consists of fluorescence intensity measurement in a reaction of quencher removal from a fluorophore quencher-coupled DNA oligonucleotide catalyzed by Tdp1. The reaction was carried out at different concentrations of inhibitors (the control samples contained 1% of DMSO, Sigma, St. Louis, MO, USA). The reaction mixtures contained Tdp1 buffer (50 mM Tris-HCl pH 8.0, 50 mM NaCl, and 7 mM β-mercaptoethanol), 50 nM biosensor, and an inhibitor being tested. Purified Tdp1 (1.5 nM) triggered the reaction. The biosensor (5′-[FAM] AAC GTC AGGGTC TTC C [BHQ]-3′) was synthesized in the Laboratory of Biomedical Chemistry at the Institute of Chemical Biology and Fundamental Medicine (Novosibirsk, Russia).
The reactions were incubated on a POLARstar OPTIMA fluorimeter (BMG LABTECH, GmbH, Ortenberg, Germany) to measure fluorescence every 55 s (ex. 485/em. 520 nm) during the linear phase (here, data from minute 0 to minute 8). The values of IC50 were determined using a six-point concentration response curve in minimum three independent experiments and were calculated using MARS Data Analysis 2.0 (BMG LABTECH, GmbH, Ortenberg, Germany).

Series [1] concerns HeLa cells. The series can be described thus: cells. The conditions noted are these: for effect of topotecan on the cytotoxicity of the Tdp1 inhibitor (in words): Mann–Whitney U-test; for CC50: Homo sapiens, HeLa. How it is done:
For comparison, the concentration of the inhibitors was increased to 20 μM.
Cytotoxicity of the compounds to HeLa (human cervical cancer) cell line was examined using the EZ4U Cell Proliferation and Cytotoxicity Assay (Biomedica, Vienna, Austria), according to the manufacturer’s protocols. The cells were grown in Iscove’s modified Dulbecco’s medium (IMDM) with 40 μg/mL gentamicin, 50 IU/mL penicillin, 50 μg/mL streptomycin (MP Biomedicals, Santa Ana, CA, USA), and 10% of fetal bovine serum (Biolot, St. Petersburg, Russia) in a 5% CO2 atmosphere. After formation of a 30–50%-monolayer, the tested compounds were added to the medium. The volume of the added reagents was 1/100 of the total volume of the culture medium, and the amount of DMSO (Sigma, St. Louis, MO, USA) was 1% of the final volume. Control cells were grown in the presence of 1% DMSO. The cell culture was monitored for 3 days. To assess the influence of the inhibitors on the cytotoxic effect of topotecan (ACTAVIS GROUP PTC ehf., Bucharest, Romania), 50% cytotoxic concentrations of topotecan and of each inhibitor were determined to attain a defined single-agent effect. Then, minimum two independent tests were performed with each inhibitor in combination with topotecan. When using a combination of drugs, Tdp1 inhibitors were first added, then topotecan was added immediately (within 10–15 min).

The test system of series [2] is HeLa cells. As to the kind of experiment: Intrinsic cytotoxicity, EZ4U cell proliferation and cytotoxicity assay. To be noted: for CC50: compound alone, 3 days, read-out: CC50 (half maximal cytotoxic concentration); for Intrinsic toxicity to HeLa cells (in words): without topotecan. In kind it is cell-based, human. The source says: (§1) Top1 poisons are used as anticancer drugs for the treatment for various oncological diseases. Since Tdp1 is involved in the removal of DNA damage caused by Top1 poisons, the activity of Tdp1 can lead to the development of drug resistance. Thus, it is believed that Tdp1 inhibition can enhance the efficacy of Top1 poisons. Tdp1 inhibitors should have the lowest possible intrinsic toxicity to minimize potential side effects. Therefore, we studied the intrinsic cytotoxicity of the compounds against HeLa cells (cervical carcinoma). EZ4U cell proliferation and cytotoxicity assay results are shown in Figure 4 for the ligands with Tdp1 inhibitory activity.
(§2) The cell culture was monitored for 3 days.

Assay in series [3]: as above
In kind it is cell-based, human. The conditions noted are these: human, HeLa cells, compound alone, 3 days, read-out: CC50 (half maximal cytotoxic concentration).
Excerpt: as §1, §2

[4] abbreviates: purified Tdp1 1.5 nM, 50 nM biosensor, read-out: IC50 (Tdp1 inhibiting activity).
The mark [5] stands for this setting: Tdp1, values of supplementary Table S1 (less rounded), read-out: IC50 (µM), Table S1.

The term IC50 denotes the midpoint of a concentration-inhibition curve. Take `COc1ccc2cc3[n+](cc2c1OS(C)(=O)=O)CCc1cc2c(cc1-3)OCO2` [10a, 10-Methoxy-9-methanesulfonyloxy-2,3-methylenedioxyprotoberberine chloride]: on Tdp1 (setting [4]), the IC50 is more than 15 µM.
With `CCS(=O)(=O)Oc1c(OC)ccc2cc3[n+](cc12)CCc1cc2c(cc1-3)OCO2` [10b, 9-Ethanesulfonyloxy-10-methoxy-2,3-methylenedioxyprotoberberine chloride], on Tdp1 (setting [4]), the half-maximal inhibitory concentration (IC50) is more than 15 µM.
Consider `CCCS(=O)(=O)Oc1c(OC)ccc2cc3[n+](cc12)CCc1cc2c(cc1-3)OCO2` [10c, 10-Methoxy-2,3-methylenedioxy-9-((propane-1-sulfonyl)oxy)protoberberine chloride], for which the IC50 at Tdp1 (setting [4]) is more than 15 µM.
As for `CCCCS(=O)(=O)Oc1c(OC)ccc2cc3[n+](cc12)CCc1cc2c(cc1-3)OCO2` [10d, 9-(Butane-1-sulfonyl)oxy-10-methoxy-2,3-methylenedioxy protoberberine chloride], the IC50 on Tdp1 (setting [4]) is more than 15 µM.
The same measure, in the same setting: the value for `COc1ccc2c(c1OS(C)(=O)=O)CN1CCc3cc4c(cc3C1C2)OCO4` (stereo not shown) [11a] was more than 15 µM.
In the case of `CCS(=O)(=O)Oc1c(OC)ccc2c1CN1CCc3cc4c(cc3C1C2)OCO4` (stereo not shown) [11b], the IC50 on Tdp1 (setting [4]) was more than 15 µM.
For `CCCS(=O)(=O)Oc1c(OC)ccc2c1CN1CCc3cc4c(cc3C1C2)OCO4` (stereo not shown) [11c], at Tdp1 (setting [4]), the IC50 is more than 15 µM.
Take `CCCCS(=O)(=O)Oc1c(OC)ccc2c1CN1CCc3cc4c(cc3C1C2)OCO4` (stereo not shown) [11d]: at Tdp1 (setting [4]), the IC50 is more than 15 µM.
In the case of `COc1ccc2c(c1OS(=O)(=O)c1ccc(C)cc1)CN1CCc3cc4c(cc3C1C2)OCO4` (stereo not shown) [11e], on Tdp1, the “Tdp1 inhibitory activity (in words)” value was “inactive”. The IC50 at Tdp1 (setting [4]) was more than 15 µM.
Take `COc1ccc2c(c1OS(=O)(=O)c1c(F)c(F)c(F)c(F)c1F)CN1CCc3cc4c(cc3C1C2)OCO4` (stereo not shown) [11f]: in the series with HeLa cells [1] (HeLa cells, 2 μM topotecan), the “decrease of CC50 in the presence of topotecan (fold)” value is listed as “three fold” and the “effect of topotecan on the cytotoxicity of the Tdp1 inhibitor (in words)” value (“effect … of the Tdp1 inhibitor (in words)” below) is “significantly increased”. The IC50 at Tdp1 (setting [5]) amounted to 0.98 ± 0.2 µM. In addition, the half-inhibitory concentration (IC50) on Tdp1 (setting [4]) is ~1 µM and 1 µM. The cell death in the series on HeLa cells [2] (5 μM) is listed as 20%. This compound showed a cells that die with HeLa cells [2] (20 μM) of 90%. Further, the CC50 in the series with HeLa cells [2] came to 11 ± 2 µM. In series [3], the CC50 at 3 days was determined as 10 µM.
As to `COc1ccc2c(c1OS(=O)(=O)c1c(F)c(F)cc(F)c1F)CN1CCc3cc4c(cc3C1C2)OCO4` (stereo not shown) [11g], the “sensitizing effect on the cytotoxicity of topotecan (in words)” value in the series on HeLa cells [1] (HeLa cells) is “doubled; also recorded: significant effect; also recorded: pronounced sensitizing effect; also recorded: sensitized the cancer cells to topotecan”. For the same compound, the “effect … of the Tdp1 inhibitor (in words)” value in the series with HeLa cells [1] (HeLa cells, 2 μM topotecan) was “significantly increased”. In addition, the “decrease in cell survival in the presence of topotecan” value with HeLa cells [1] (HeLa cells, 2 μM topotecan, at all inhibitor concentrations) is ~ 30%. In addition, the IC50 on Tdp1 (setting [5]) and at Tdp1 (setting [4]) was 1.05 ± 0.05 µM in each case. Moreover, in the series with HeLa cells [2] (100 μM maximum concentration), the living cells worked out at 100%. In addition, in the series on HeLa cells [2], the “Intrinsic toxicity to HeLa cells (in words)” value (shortened to “Intrinsic toxicity”) is recorded as “low toxicity; also recorded: nontoxic”. The CC50 at 3 days in series [3] is more than 100 µM.
As for `COc1ccc2c(c1OS(=O)(=O)c1c(F)c(F)c(C(F)(F)F)c(F)c1F)CN1CCc3cc4c(cc3C1C2)OCO4` (stereo not shown) [11h], the “effect … of the Tdp1 inhibitor (in words)” value with HeLa cells [1] (HeLa cells, 2 μM topotecan) is reported as “negligible or unreliable”. In addition, the figures for the IC50 at Tdp1 (setting [5]) and at Tdp1 (setting [4]) were 0.93 ± 0.22 µM and 0.9 ± 0.2 µM, respectively. Further, the CC50 at 3 days in series [3] stood at 2.6 ± 0.1 µM.
For the compound `COc1cc(Br)c2c(c1OS(C)(=O)=O)CN1CCc3cc4c(cc3C1C2)OCO4` (stereo not shown) [12a], on Tdp1 (setting [4]), the IC50 is more than 15 µM.
The same measure, in the same setting: the value for `CCS(=O)(=O)Oc1c(OC)cc(Br)c2c1CN1CCc3cc4c(cc3C1C2)OCO4` (stereo not shown) [12b] was more than 15 µM.
For the compound `CCCS(=O)(=O)Oc1c(OC)cc(Br)c2c1CN1CCc3cc4c(cc3C1C2)OCO4` (stereo not shown) [12c], in the series on HeLa cells [1] (HeLa cells, 2 μM topotecan), the “effect … of the Tdp1 inhibitor (in words)” value is recorded as “negligible or unreliable”. Besides, the IC50 at Tdp1 (setting [5]) came to 2.86 ± 1.25 µM; at Tdp1 (setting [4]), 2.9 ± 1.3 µM. The “Intrinsic toxicity” value in the series with HeLa cells [2] was “non-toxic up to 100 μM”. In addition, in series [3], the CC50 at 3 days was more than 100 µM.
As for `CCCCS(=O)(=O)Oc1c(OC)cc(Br)c2c1CN1CCc3cc4c(cc3C1C2)OCO4` (stereo not shown) [12d], in the series with HeLa cells [1] (HeLa cells, 2 μM topotecan), the “effect … of the Tdp1 inhibitor (in words)” value is reported as “negligible or unreliable”. The IC50 at Tdp1 (setting [5]) is 4.06 ± 1.05 µM; at Tdp1 (setting [4]) it was 4 ± 1 µM. Moreover, the “Intrinsic toxicity” value with HeLa cells [2] was “non-toxic up to 100 μM”. For the same compound, the CC50 at 3 days in series [3] is more than 100 µM.
With `COc1cc(Br)c2c(c1OS(=O)(=O)c1ccc(C)cc1)CN1CCc3cc4c(cc3C1C2)OCO4` (stereo not shown) [12e], the “Tdp1 inhibitory activity (in words)” value on Tdp1 is “inactive”. The IC50 on Tdp1 (setting [4]) was more than 15 µM.
As to `COc1cc(Br)c2c(c1OS(=O)(=O)c1c(F)c(F)c(F)c(F)c1F)CN1CCc3cc4c(cc3C1C2)OCO4` (stereo not shown) [12f], the “effect … of the Tdp1 inhibitor (in words)” value in the series on HeLa cells [1] (HeLa cells, 2 μM topotecan) was “negligible or unreliable”. Also, the IC50 on Tdp1 (setting [4]) turned out to be 0.53 ± 0.01 µM. In addition, the CC50 in the series with HeLa cells [2] turned out to be 9.9 ± 4.5 µM. The CC50 at 3 days in series [3] is 10 µM.
As for `COc1cc(Br)c2c(c1OS(=O)(=O)c1c(F)c(F)cc(F)c1F)CN1CCc3cc4c(cc3C1C2)OCO4` (stereo not shown) [12g], the “sensitizing effect on the cytotoxicity of topotecan (in words)” value in the series on HeLa cells [1] (HeLa cells) is reported as “doubled; also recorded: significant effect; also recorded: pronounced sensitizing effect; also recorded: sensitized the cancer cells to topotecan”. Further, in the series with HeLa cells [1] (HeLa cells, 2 μM topotecan), the “effect … of the Tdp1 inhibitor (in words)” value was “significantly increased”. Moreover, the IC50 on Tdp1 (setting [5]) was 1.33 ± 0.28 µM; on Tdp1 (setting [4]), 1.3 ± 0.3 µM. Also, the CC50 at 3 days in series [3] came to 95 ± 5 µM.
Take `COc1cc(Br)c2c(c1OS(=O)(=O)c1c(F)c(F)c(C(F)(F)F)c(F)c1F)CN1CCc3cc4c(cc3C1C2)OCO4` (stereo not shown) [12h]: the “effect … of the Tdp1 inhibitor (in words)” value in the series on HeLa cells [1] (HeLa cells, 2 μM topotecan) is given as “negligible or unreliable”. The IC50 on Tdp1 (setting [5]) amounted to 1.38 ± 0.3 µM; on Tdp1 (setting [4]), 1.4 ± 0.3 µM. The CC50 at 3 days in series [3] was 2.2 ± 1.5 µM.
Consider `COc1ccc2cc3[n+](cc2c1OC)CCc1cc2c(cc1-3)OCO2` [compound 9, berberine], for which the IC50 on Tdp1 (setting [5]) is more than 15 µM.
Consider `CC[C@@]1(O)C(=O)OCc2c1cc1n(c2=O)Cc2cc3c(CN(C)C)c(O)ccc3nc2-1` [topotecan, reference compound], for which the CC50 in the series with HeLa cells [1] (read-out: CC50, μM–5 μM Tdp1 inhibitor (cytotoxic potential of topotecan)) was found to be 6.8 ± 1.1 µM; with HeLa cells [1] (read-out: CC50, μM–20 μM Tdp1 inhibitor (cytotoxic potential of topotecan)), 6.8 ± 1.1 µM. In addition, the CC50 at 3 days in series [3] turned out to be 2 µM.
